# Like-named read-outs stand apart in the source and are kept apart here.
# Experiments:
# [1] = target: T1, rabbit TIM (Oryctolagus cuniculus, UniProt P00939); assay: Selectivity assay, inhibition of rabbit TIM; format: biochemical; conditions: read-out: inhibition against rabbit TIM
# T1 construct: made in house; host or cells: Escherichia coli
# Method: (§1) Expression and purification of proteins: FhTIM, RabbitTIM and HsTIM were expressed in Escherichia coli and purified as described in the literature[31],[37]. After purification, the enzyme, dissolved in 100 mM triethanolamine, 10 mM EDTA and 1 mM dithiothreitol (pH 8), was precipitated with ammonium sulfate (75% saturation) and stored at 4 °C. Before use, extensive dialysis against 100 mM triethanolamine/10 mM EDTA (pH 7.4) was performed. Protein concentration was determined by absorbance at 280 nm for FhTIM (ε = 33,460 M^−1cm^−1) and for RabbitTIM and HsTIM (ε = 33,460 M^−1cm^−1). Enzymatic activity was determined following the conversion of glyceraldehydes-3-phosphate into dihydroxyacetone phosphate in a coupled enzyme assay. The decrease in absorbance at 340 nm was followed in a multiplate reader VarioskanTM Flash Multimode Reader (Thermo ScientificTM, Waltham, MA, USA) at 38 °C. The reaction mixture (1 mL, pH 7.4) contained 100 mM triethanolamine, 10 mM EDTA, 0.2 mM NADH, 1 mM glyceraldehydes-3-phosphate and 0.9 units of α-glycerol phosphate dehydrogenase. The reaction was initiated by the addition of 5 ng/mL of the TIM of interest. For the inhibition studies, TIM was incubated at a concentration of 5 mg/mL in a buffer containing 100 mM triethanolamine, 10 mM EDTA, pH 7.4 and 10% of DMSO at 37 °C for 1 h. The mixture also contained the compounds, dissolved in DMSO, at the indicated concentrations. After 1 h, 10 µL were withdrawn and added to a final volume of 100 µL of the reaction mixture for the activity assay. The inhibition assay was performed in a 96-well microplate. None of the molecules tested here affected the activity of α-glycerol phosphate dehydrogenase, the enzyme used in the coupled assay. The IC50 value was taken as the concentration of drug needed to reduce the enzymatic activity to 50% by analysis using OriginLab8.5® sigmoidal regression (% of enzymatic activity vs. the logarithm of the compound concentration). The experiments were performed in triplicate in two independent experiments.
# [2] = tested on: newly excysted juvenile (NEJ) F. hepatica; assay: In vitro NEJ treatment; format: cell-based, Fasciola hepatica; conditions: NEJ
# Method: F. hepatica metacercariae were acquired from DILAVE, MGAP, Uruguay. NEJ were obtained by in vitro excystement as previously described with minor modifications. Briefly, metacercariae were incubated with 1% sodium hypochlorite for 5 min at room temperature to remove the outer cyst wall and then washed exhaustively with PBS 200 U/mL Penicillin G sulfate, […] streptomycin sulfate, 500 ng/mL amphotericin B, 10 mM HEPES, counted and divided into groups of around 20 parasites that were transferred to 12 wells tissue culture plates. Parasites were maintained at 37 °C, 5% CO2 in modified Basch’s medium. At day 1, compounds were added at the indicated concentrations and 0.5% DMSO was added to control groups; each condition was tested in duplicate. NEJ behavior was monitored under a light microscope (Olympus BX41), every day each well was recorded for a minute in order to assess parasite motility and registered using the following score: 3- normally active; 2- reduced activity (sporadic movement); 1- immotile (dead)[48].
# [3] = target: Fasciola hepatica TIM (FhTIM) (Fasciola hepatica, UniProt S4UI50); assay: Inhibition of recombinant FhTIM, coupled enzyme assay; format: biochemical
# Fasciola hepatica TIM (FhTIM), sequence (S4UI50 entry or part of it): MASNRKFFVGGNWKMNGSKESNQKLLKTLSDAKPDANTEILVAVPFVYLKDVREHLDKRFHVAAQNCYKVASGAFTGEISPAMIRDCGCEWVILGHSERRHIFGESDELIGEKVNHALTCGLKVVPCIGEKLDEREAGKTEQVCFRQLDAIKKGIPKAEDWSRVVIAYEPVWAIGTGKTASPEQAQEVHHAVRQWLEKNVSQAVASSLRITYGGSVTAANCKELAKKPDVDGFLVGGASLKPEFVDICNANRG
# Method in brief: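 E. coli-expressed FhTIM preincubated with compound 1 h at 37 °C in 100 mM triethanolamine, 10 mM EDTA, pH 7.4, 10% DMSO. Aliquot diluted into coupled assay (1 mM glyceraldehyde-3-phosphate, 0.2 mM NADH, α-glycerol phosphate dehydrogenase, pH 7.4) with NADH decrease at 340 nm, 38 °C. Triplicate, two independent experiments.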
# [4] = target: T2, human (HsTIM) (Homo sapiens, UniProt P60174); assay: Selectivity assay, inhibition of HsTIM; format: biochemical; conditions: read-out: inhibition against HsTIM
# T2 construct: made in house; host or cells: Escherichia coli
# T2 sequence (P60174 whole entry): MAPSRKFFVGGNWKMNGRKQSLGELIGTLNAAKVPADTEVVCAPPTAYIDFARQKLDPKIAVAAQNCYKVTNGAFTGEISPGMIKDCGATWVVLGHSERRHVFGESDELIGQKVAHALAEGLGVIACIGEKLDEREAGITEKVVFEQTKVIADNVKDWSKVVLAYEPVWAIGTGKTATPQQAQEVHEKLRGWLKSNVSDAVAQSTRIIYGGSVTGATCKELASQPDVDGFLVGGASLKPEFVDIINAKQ
# Method: as §1
# [5] = tested on: S. mansoni somules; assay: S. mansoni somules phenotypic screen in vitro; format: cell-based, Schistosoma mansoni; conditions: for S. mansoni somules severity score: score 0 to maximum 4; for SOMULES SEVERITY SCORE: Table 2S, 10 uM
# Source text: (§2) The NMRI isolate of S. mansoni was maintained by passage through Biomphalaria glabrata snails and 3–5 week-old, female Golden Syrian hamsters (Charles River, San Diego, CA) as intermediate and definite hosts, respectively. A dose of 600 infective larvae (cercariae) was used to infect hamsters. The acquisition, preparation and in vitro maintenance of S. mansoni post-infective larvae (schistosomula or somules) and adults have been already described[5],[50],[51]. Vertebrate animal maintenance and handling at the University of California San Diego Animal Care Facility were in accordance with protocols approved by the university’s Institutional Animal Care and Use Committee (IACUC).
# Phenotypic screens with somules were performed as described[5],[50],[51]. Initially, 100 μL Basch medium, 100 U/ml penicillin, […] streptomycin, 4% heat-inactivated FBS (Corning Mediatech) and 1 μl compound in DMSO were added to clear, 96-well round-bottomed plates (Costar cat.# 3367). Then, 100 μL of the same medium containing 40–50 somules was added to mix the compound with somules (final concentration of DMSO was 0.5%). Assay plates were placed into plastic boxes humidified with wet tissue and then incubated at 37 °C in a 5% CO2 environment. Somules phenotypes were recorded every 24 h up to 72 h using an inverted microscope (Zeiss Axiovert 40 C).
# (§3) Schistosome phenotypic responses were recorded employing a series of ‘descriptors,’ such as rounding, degeneration, overactivity, loss of translucency and changes in motility, as described previously[5],[50],[51],[53]. To allow for comparisons of compound activity, each descriptor was awarded a value of 1 and these were added up to a maximum ‘severity score’ of 4. Evidence of degeneracy or death was awarded the maximum score of 4. Scores were averaged across duplicate wells for each compound (see details in the supporting information).
# [6] = target: FhTIM (Fasciola hepatica, UniProt S4UI50); assay: Microscale thermophoresis (MST) binding to FhTIM; conditions: 24 °C
# FhTIM, sequence (S4UI50 entry or part of it): as the sequence (S4UI50 entry or part of it) above
# Method: MST experiments were performed according to the NanoTemper technologies protocol in a Monolith NT.115 (red/blue) instrument (NanoTemper Technologies, München, Germany[36]). With this technique, the diffusion behavior of a labeled protein is measured when an infrared light excites the movement of the protein in capillaries. This behavior is the combination of two effects: the fast, local environment-dependent responses of the fluorophore to the temperature jump and the slower diffusive thermophoresis fluorescence changes. It will be modified when the protein is complexed with increasing amounts of unlabeled partners, leading to titration curves that can be fit for Kd estimation. In practice, FhTIM was labeled with the Monolith His-Tag Labeling Kit RED-tris-NTA (NanoTemper Technologies, München, Germany), as described by the manufacturer. The experiments were performed using 20% and 40% MST power and between 20–80% LED power at 24 °C. The MST traces were recorded using the standard parameters: 5 s MST power off, 30 s MST power on, and 5 s MST power off. The compounds were used at high concentrations (around 5 mM) in the bindings check assay with DMSO at 5% v/v. If the binding check was positive, then the affinity determination was performed with the same experimental settings, with serial 2x dilutions of the compound of interest.
# [7] = tested on: S. mansoni adults; assay: S. mansoni adults phenotypic screen ex vivo; format: cell-based, Schistosoma mansoni; conditions: Table 2S, 5 uM
# Source text: as §2
# Phenotypic screens with 42-day-old, adult parasites were performed in 24-well plates (Costar cat.# 3526) containing the above medium and approximately five adult males and two females per well. Compound was added in a volume of up to 1 μL DMSO at a concentration of 5 µM (0.05% DMSO final). Assay plates were incubated at 37 °C in a 5% CO2 environment. Parasite phenotypes were recorded at 4, 8 and 24 h using a Zeiss Axiovert 40 C.
# as §3
# [8] = tested on: murine macrophages and bovine sperm; assay: Non-specific toxicity against mammalian cells; format: cell-based; conditions: for toxicity to mammalian cells in words: herein; for Toxicity mammalian cells: selectivity index parasite vs. mammalian cells, fixed doses 25 and 100 µM
# Method: As a proof of concept, we tested the best FhTIM inactivators against F. hepatica and S. mansoni parasites. Also, we use compound 191 as a non-inhibitor which has a closely related structure to that of compound 187. Some compounds were able to kill 100% of the newly excysted juvenile (NEJ) F. hepatica within 4 to 48 h (Table 2 and Fig. 2). […] In parallel, these compounds were assayed to characterize their non-specific toxicity against murine macrophages and bovine sperm. Both models are recommended by FDA as an in vitro prediction of toxicology.
# J774.1 murine macrophage cells (ATCC, USA) were grown in DMEM culture milieu containing 4 mM glutamine and supplemented with 10% FCS[20]. The cells were seeded in a 96-well plate (5×10^4 cells in 200 µL culture medium) and incubated at 37 °C in a 5% CO2 atmosphere for 48 h, to allow cell adhesion prior to drug testing. Afterward, cells were exposed for 48 h to the compounds (25–400 µM) or the vehicle for control (0.4% DMSO), and additional controls (cells in medium) were used in each test. Cell viability was then assessed by measuring the mitochondria-dependent reduction of MTT (3-(4,5-dimethylthiazol-2-yl)-2,5-diphenyltetrazolium bromide) to formazan. For this purpose, MTT in sterile PBS (0.2% glucose), pH 7.4, was added to the macrophages to achieve a final concentration of 0.1 mg/mL, and the cells were incubated at 37 °C for 3 h. After removing the medium, formazan crystals were dissolved in 180 µL of DMSO and 20 µL of MTT buffer (0.1 M glycine, 0.1 M NaCl, 0.5 mM EDTA, pH 10.5), and the absorbance at 560 nm was measured. The IC50 was defined as the drug concentration at which 50% of the cells were viable, relative to the control (no drug added), and was determined by analysis using OriginLab8.5® sigmoidal regression (% of viable cells vs. the logarithm of the compound concentration). Tests were performed in triplicate.
# Semen samples were obtained from a healthy fertile Hereford bull and kept frozen in 0.5 mL straws (extended in Andromed, Minitube, Germany[47]) under liquid nitrogen until use. The semen used belonged to a single freezing batch that was obtained during a regular collection schedule with an artificial vagina. Samples from three straws were thawed and a sperm pool was prepared in PBS at a concentration of 40 million spermatozoa per mL, then 50 μL of this sperm suspension was carefully mixed with 50 μL of compounds diluted to 100, 50, 25, 12.5 and 6.25 μM or with 1% DMSO in control experiments. Each condition was assayed by duplicate in 96-well plates and controls were assayed by triplicate. Plates were incubated at 37 °C for 1 h with moderate shaking. The motility analysis was carried out using a CASA (Computer Assisted Semen Analyzer) system Androvision (Minitube, Tiefenbach, Germany) with an Olympus BX 41 microscope (Olympus, Japan) equipped with a warm-stage at 37 °C. Each sample (10 μL) was placed onto a Makler Counting Chamber (depth 10 μm, Sefi-Medical Instruments, Israel) and the following parameters were evaluated: percentage of total motile spermatozoa (motility >5 μm/s) and velocity curved line (VCL, >24 μm/s). At least 400 spermatozoa were analyzed from each sample from at least four microscope fields.
# [9] = tested on: murine macrophages and human peripheral blood mononuclear cells; set-up: method as in PMID 22536349; conditions: at 100 µM; cited from earlier work
# [10] = Figure 1, ranges of inhibitory activity, read-out: IC50 range
# [11] = recombinant FhTIM, 1 h incubation with compound at 37 °C, read-out: IC50
# [12] = Table 1S, screening of 340 compounds in FhTIM, table head prints no unit, µM per b8/b9, read-out: IC50
# T1 sequence (P00939 whole entry): as the sequence (P60174 whole entry) above, with Q20K, S21N, G27T, A119S counted along it
Structure (SMILES),inhibition at 100 µM [1] [%],"IC50 [3, 10] [µM]","IC50 [3, 11] [µM]",inhibition at 100 µM [4] [%],SOMULES SEVERITY SCORE ([5]; 24 h),SOMULES SEVERITY SCORE ([5]; 48 h),SOMULES SEVERITY SCORE ([5]; 3d),Kd [6] [µM],"S. mansoni somules severity score ([5]; Table 2, 72 h)","IC50 [3, 12] [µM]",IC50 ([2]; incubation time 72 h) [µM],toxicity to mammalian cells in words [8],Toxicity mammalian cells [8],toxicity in words [9],further results
O=C1C(=Cc2ccc([N+](=O)[O-])cc2)C(=O)N(CCc2ccccc2)S(=O)(=O)N1CCc1ccccc1 [Compound 110],< 20,< 50,7 ± 1,< 20,0,0,0,–,–,–,–,–,–,–,"IC50 ([2]; Fasciola hepatica, incubation time 30 h): 5 ± 2 µM; S. mansoni somules severity score ([5]; Table 2, time not given): 0"
O=C1C(=Cc2ccc([N+](=O)[O-])s2)C(=O)N(CCc2ccccc2)S(=O)(=O)N1CCc1ccccc1 [Compound 115],< 20,< 50,8 ± 2,< 20,2,3,4,120 ± 12,4 (72 h),–,–,–,–,–,"IC50 ([2]; Fasciola hepatica, incubation time 72 h): 7 ± 2 µM"
CCCCCCN1C(=O)C(=Cc2ccc([N+](=O)[O-])cc2)C(=O)N(CCCCCC)S1(=O)=O [Compound 128],< 20,< 50,5 ± 1,< 20,–,–,–,120 ± 10,–,< 25,–,–,–,–,"IC50 ([2]; Fasciola hepatica, incubation time 12 h): 10 ± 1 µM"
C=CCn1c(-c2ccc(Cl)cc2)csc1=NN=CC=Cc1ccc([N+](=O)[O-])s1 [Compound 144],–,–,60 ± 2,–,1,2,4,–,4 (72 h),–,25 ± 5,non-toxic,"NT (when the IC50 vs. the parasite was at least 10 times less than the IC50 vs. the mammalian cells, we considered these compounds as non-toxic (NT))",non-toxic,ADULTS SEVERITY SCORE ([7]; 4 h): 0; ADULTS SEVERITY SCORE ([7]; 8 h): 0; ADULTS SEVERITY SCORE ([7]; 24 h): 0
C=CCn1c(-c2ccc(Cl)cc2)csc1=NN=CC=Cc1cccs1 [Compound 1134],–,–,45 ± 4,–,–,–,–,–,–,50 to 100,50 ± 6,non-toxic,"NT (when the IC50 vs. the parasite was at least 10 times less than the IC50 vs. the mammalian cells, we considered these compounds as non-toxic (NT))",non-toxic,–
